Source: the OPERA property sets (Mansouri et al. 2018)

conditions: not given

SMILES	ready biodegradability	melting point	boiling point	log10 vapour pressure (mmHg)	log10 biodegradation half-life (days)	log10 Henry constant (atm·m³/mol)	log10 Koc (L/kg)	log10 Koa	logP
O=[N+]([O-])c1ccc(Cl)cc1C(F)(F)F	not readily biodegradable								
CCCCCCCCC[C@H](O)CC		25 °C							
NN1C(=O)CSC1=S		102 °C							
O=C1CCCCCCCCCCCN1	not readily biodegradable	152 °C							
Brc1ccc(Br)c(Br)c1		44.5 °C	275 °C						
Cc1ccc(Cl)c(Cl)c1Cl		43.5 °C	244 °C						
CC(=O)Nc1ccc(-c2ccc(N)cc2)cc1	not readily biodegradable								
C=C[Si](C)(C)C			55 °C						
CC(C)(C)c1cc(-n2nc3ccccc3n2)c(O)c(C(C)(C)C)c1	not readily biodegradable								
Cn1c([N+](=O)[O-])cnc1/C=C/c1ccnc(N)n1		234 °C							
CCc1nc(C)cnc1C			180 °C						
COC(Cc1ccccc1)OC			220 °C						
CC(C)(SC(=O)N1CCCCC1)c1ccccc1		39 °C		-5.4					
CCCCCCCCCCCC(C)=O		30.5 °C	263 °C	-1.98					
Ic1cc(I)c(I)c(I)c1I		172 °C							
Cc1ccc(S(=O)(=O)NC(=O)NN2CCCCCC2)cc1		172 °C							
O=C(O)c1ccccc1Cl	not readily biodegradable	140 °C	287 °C	-3.18					
C[C@]12CCC(=O)C=C1CC[C@@H]1[C@@H]2CC[C@@]2(C)[C@H]1CC[C@]2(C)O		163 °C							
CCCCCCCCCCCC(=O)CCCCCCCCCCC		70.2 °C							
COC1=C(OC)C(=O)C(C)=CC1=O		59.5 °C							
O=C(O)/C(F)=C/c1ccccc1		158 °C	290 °C						
FC1(F)OC1(F)F		-118 °C	-63.5 °C						
Cc1cc(C)cc([N+](=O)[O-])c1		75 °C	274 °C						
C1=Cc2ccccc2C1		-1.8 °C	182 °C	0.0414	0.477				
O=C(O)c1cccc(F)c1F		164 °C							

SMILES	ready biodegradability	melting point	boiling point	log10 vapour pressure (mmHg)	log10 biodegradation half-life (days)	log10 Henry constant (atm·m³/mol)	log10 Koc (L/kg)	log10 Koa	logP
Clc1cccc(Nc2ccccc2)c1			338 °C						
CN(C)C(CSC(N)=O)CSC(N)=O.Cl		180 °C							
CCCC(C)C1(CC)C(=O)N=C(O)NC1=O (stereo unspecified)		130 °C							
C=CC#CC			59.5 °C						
O=C(O)c1cccc(I)c1		188 °C							
FC(F)(Cl)C(Cl)(Cl)C(F)(F)Cl		-42.9 °C	112 °C						
FC(F)C(F)(F)Cl		-117 °C	-10 °C						
CC(C)CCCCCO		-106 °C	188 °C						
CC(CO)(CO)[N+](=O)[O-]		150 °C							
N#Cc1c[nH]c2ccccc12		180 °C							
FC(F)OC(Cl)C(F)(F)F (stereo unspecified)		48.5 °C	48.5 °C			-1.54			
Nc1cccc2cc(O)ccc12		191 °C							
COC(C)CCOC(C)=O (stereo unspecified)	readily biodegradable								
COC(N)=O		54 °C	177 °C						
S=C1SCN(Cc2ccccc2)CN1Cc1ccccc1		102 °C							
CCCCCCCCC=CCCCCCCCC(=O)OCCS(=O)(=O)[O][Na]	readily biodegradable								
Cc1cccc([N+](=O)[O-])c1C	not readily biodegradable	15 °C	240 °C	-0.445					
CC(=O)Oc1ccc(OC(C)=O)c(-c2ccccc2)c1		68 °C							
O=C(Oc1ccc2ccccc2c1)c1ccccc1		107 °C							
CCc1nc(C)c[nH]1		50.5 °C	294 °C						
OC1c2ccccc2CCc2ccccc21		92 °C							
Cc1cccc(C(=O)O)c1	readily biodegradable	109 °C		-3.63					
CCCCCCCCCCCCCC(=O)CCCCCCCCCCCCC		77.5 °C							
CCCC1CCCC1		-117 °C	131 °C	1.09					
COc1ccc(C=CC(=O)c2ccc(OC)cc2OC)cc1		97 °C							

SMILES	ready biodegradability	melting point	boiling point	log10 vapour pressure (mmHg)	log10 biodegradation half-life (days)	log10 Henry constant (atm·m³/mol)	log10 Koc (L/kg)	log10 Koa	logP
CC=C(C)CCl			110 °C						
O=C1CCCN1		23 °C	245 °C	-2.02					
CC(=O)CC(c1ccccc1)c1c(O)c2ccccc2oc1=O (stereo unspecified)				-6.94			2.96		
CCCCCOCCCCC		-69 °C	190 °C	-0.067				4.8	
FCCCCBr			135 °C						
NCCCc1ccccc1			221 °C						
O=C(Oc1ccccc1)c1ccccc1		71 °C	314 °C	-2.77			3.16		
CCOC(=O)C(C(=O)OCC)C(C(=O)OCC)C(=O)OCC		77 °C							
Oc1ccc(Sc2ccc(O)cc2)cc1		155 °C							
CCCc1cc(=O)[nH]c(=S)[nH]1	not readily biodegradable	219 °C							
O=C1C(O)=C(Cl)C(=O)c2ccccc21		216 °C							
COc1ccc2c(OC(C)=O)c(OC)c(OC)c(OC(C)=O)c2c1		77.5 °C							
Clc1ccc(-c2ccc(Cl)c(Cl)c2Cl)c(Cl)c1						-4.18			
CCNC(=S)NCC		78 °C							
CCOP(=S)(OCC)Oc1ccc([N+](=O)[O-])cc1		6.1 °C	375 °C	-5.18		-6.53	3.2		
O=C(c1ccccc1)c1c(F)c(F)c(F)c(F)c1F		37 °C							
O=C(O)c1cc(Br)cc(Br)c1O		228 °C							
Brc1cccc(I)c1		-9.3 °C	252 °C						
Cc1ccc(O)c(C(C)(C)C)c1	not readily biodegradable	51.5 °C	237 °C	-1.6					
CCCCC1CCC(=O)O1 (stereo unspecified)			234 °C						
c1c[nH]cn1	readily biodegradable	90.5 °C	257 °C						
CCOC(=O)c1ccc2c(c1)OCO2		18.5 °C	286 °C						
CCCCCCCCCCCCCCCCCCCCCCCCCCCC(=O)O		90.9 °C							
COc1cccc2cccnc12		49.5 °C	283 °C						
CCCCCCCCCCCCCCCCCCNC		44 °C							

SMILES	ready biodegradability	melting point	boiling point	log10 vapour pressure (mmHg)	log10 biodegradation half-life (days)	log10 Henry constant (atm·m³/mol)	log10 Koc (L/kg)	log10 Koa	logP
C#C[C@]1(O)C=C[C@H]2[C@@H]3CCC4=CC(=O)CC[C@@H]4[C@H]3CC[C@@]21CC		198 °C							
CCC(=O)c1c(O)cc(O)cc1O		176 °C							
COC1(C)CC(c2ccccc2)c2c(c3ccccc3oc2=O)O1 (stereo unspecified)		166 °C							
CC(C)(C(N)=O)n1nc2ccccc2n1		174 °C							
Fc1ccc2ccccc2c1		61 °C	212 °C						
O=C(O)c1ccc2c(c1)C(=O)c1ccccc1C2=O		291 °C							
OCCC(O)CO (stereo unspecified)			312 °C						
O=C1c2ccccc2Cc2ccccc21		155 °C							
CCC(C)Br (stereo unspecified)		-112 °C	91.2 °C	1.76					
Cc1ccc(OP(=O)(Oc2ccc(C)c(C)c2)Oc2ccc(C)c(C)c2)cc1C		72 °C							
c1ccc2c(c1)ccc1nc3ccc4ccccc4c3cc12		216 °C							
Cc1c2ccccc2cc2ccccc12		81.5 °C		-4.4	2.42		4.81		
CCCCC(CC)CO (stereo unspecified)	readily biodegradable	-70 °C		-0.867					
CC(=O)N(c1ccccc1)c1ccccc1		103 °C							
NC(=O)c1ccccc1O		142 °C							
CC1CC1(C)C (stereo unspecified)		-138 °C	54 °C						
c1cnc2cccnc2c1		75 °C							
CCCCCCCCCCCCCCCCCCCCCCCCCCCCCCCCCCCCC	readily biodegradable		505 °C						
CCOC(CCCN)OCC			196 °C						
CCOc1cc(OCC)c(C(=O)CCC(=O)O)cc1OCC		150 °C							
COC(F)(F)C(F)(F)C(F)(F)F				2.75					
COC(=O)c1ccc(O)c(OC)c1		64 °C	286 °C						
CCCCc1c(C)nc(N(C)C)nc1O		102 °C		-4.96			1.95		
C[Si]1(c2ccccc2)O[Si](C)(c2ccccc2)O[Si](C)(c2ccccc2)O[Si](C)(c2ccccc2)O1 (stereo unspecified)		99 °C							
Cc1cc(-c2ccccc2)nnc1NCCN1CCOCC1		122 °C							

SMILES	ready biodegradability	melting point	boiling point	log10 vapour pressure (mmHg)	log10 biodegradation half-life (days)	log10 Henry constant (atm·m³/mol)	log10 Koc (L/kg)	log10 Koa	logP
CCCCCCCCCCCCCCCCCCl				-4.34					
O=C(O)C1CSCN1 (stereo unspecified)		196 °C							
O=C(c1ccc(O)cc1)c1ccc(O)cc1		210 °C							
CN(C)c1ccc(N=O)cc1		92.5 °C							
CCCCCCCCCCCCCC(=O)OC(C)C		3 °C		-4.03					
O=C(O)c1ccc(I)cc1		270 °C							
Cl.NCCc1ccccc1		218 °C							
CCOc1ccccc1OS(=O)(=O)NC(O)=Nc1nc(OC)cc(OC)n1		145 °C							
CC(C)COC(=O)Cc1ccccc1			247 °C						
CC(=O)NCCCCCC(=O)O		104 °C							
CCNc1nc(Cl)nc(NCC(=O)OCC)n1		228 °C							
NC(=O)N(CCO)/N=C/c1ccc([N+](=O)[O-])o1		214 °C							
C=C(C)C(=O)OCCN(CC)CC	readily biodegradable								
C=CC(=O)OC1CCCCC1C (stereo unspecified)			210 °C						
Cc1cc(C)cc(C)c1	not readily biodegradable	-44.7 °C	165 °C	0.395	0.477	-2.06	2.82		
Clc1cc2oc3cc(Cl)c(Cl)c(Cl)c3c2cc1Cl		225 °C		-8.76					
OCC(Cl)CCl (stereo unspecified)			184 °C						
c1ccc([Si](c2ccccc2)(c2ccccc2)c2ccccc2)cc1		236 °C							
Brc1ccc(Oc2ccc(Br)c(Br)c2Br)c(Br)c1				-8.14				11.7	7.37
Clc1ccc(Cl)c(-c2c(Cl)c(Cl)cc(Cl)c2Cl)c1Cl						-4.62			
Nc1ccc(Sc2ccc(N)cc2)cc1		108 °C	361 °C				2.04		
O=C(CS)Nc1ccc2ccccc2c1		112 °C							
O=C(O)C(F)(F)C(F)F			134 °C						
O=C1OC(=O)c2c(I)c(I)c(I)c(I)c21		328 °C							

same assay, conditions: fish

SMILES	log10 BCF	log10 biotransformation half-life (days)
O=[N+]([O-])c1ccc(Cl)cc1C(F)(F)F	1.87	-0.36
O=C1CCCCCCCCCCCN1	0.41	
Brc1ccc(Br)c(Br)c1	3.63	
CC(C)(C)c1cc(-n2nc3ccccc3n2)c(O)c(C(C)(C)C)c1		0.89
O=C(O)c1ccccc1Cl	1	
CCOP(=S)(OCC)Oc1ccc([N+](=O)[O-])cc1	1.99	-0.41
Brc1cc(Oc2c(Br)c(Br)c(Br)c(Br)c2Br)c(Br)c(Br)c1Br	5.44	
Cc1c2ccccc2cc2ccccc12		0.23
CCOP(=S)(NC(C)CC)Oc1cc(C)ccc1[N+](=O)[O-] (stereo unspecified)	2.46	-0.2
Cc1cc(C)cc(C)c1	2.27	0.4
Clc1cc2oc3cc(Cl)c(Cl)c(Cl)c3c2cc1Cl	3.58	
Brc1ccc(Oc2ccc(Br)c(Br)c2Br)c(Br)c1		1.34
